Data: PMC3320615, “β-Microseminoprotein Endows Post Coital Seminal Plasma with Potent Candidacidal Activity by a Calcium- and pH-Dependent Mechanism” (PLoS Pathogens, 2012)

B1: recombinant MSP: Recombinant human β-microseminoprotein from R&D Systems (protein)
chain: SCYFIPNEGVPGDSTRKCMDLKGNKHPINSEWQTDNCETCTCYETEISCCTLVSTPVGYDKDNCQRIFKKEDCKYIVVEKKDPKKTCSVSEWII

Experiments:
[1] = system: Candida albicans ATCC 90028; test: CFU assay with C. albicans; type: cell-based; conditions: for Estimate (difference between means of log values): control - treatment, pH 4
Description: Candida albicans strains: ATCC 90028, CAF-1-2, SC5814, BM4f35II68, vaginal clinical isolates from Dept. of Clincal Microbiology, Skåne University Hospital, SO_303369 and SO_503471. Candida parapsilosis strains: ATCC 90018, BD1800, BD17837, and BM24/68/09. Candida glabrata strains: ATCC 90030, clinical isolates from Dept. of Clincal Microbiology, Skåne University Hospital, SO_3336, SO_3400 and SO_503413. All strains were inoculated from frozen culture and grown in Yeast extract-Peptone-Dextrose (YPD) (Sigma) and on Sabourand Dextrose Broth (SAB) (Difco) plates at 30°C with 5% (v/v) CO2. If not otherwise stated, ATCC 90028 was used for candidacidal experiments.
(§1) Candida albicans was grown over night, washed, and resuspended in 10 mM Tris, 5 mM glucose, pH 7.4 or pH 4. Approximately 4×10^3 to 10^4 CFU of C. albicans were incubated with the test substance in low or neutral pH buffer for 4 h at 37°C. After incubation, the suspension was diluted and plated. Colonies were counted after two days incubation of the plates at 30°C. Bacteria from overnight cultures were inoculated in fresh medium and grown for 3 h, washed in 10 mM Tris, 5 mM glucose pH 7.4. Approximately 8×10^4 CFU were incubated with sample in 10 mM Tris, 5 mM glucose pH 7.4 or pH 4 for 1 h at 37°C, diluted, plated and incubated over night at 37°C and the colonies counted.
Statistical analysis was performed using SAS 9.2 software (SAS Institute, Cary, NC). Colony counts were log transformed. In order to choose the statistical method, interactions between the Treatment and Experiment were investigated. Treatments were screened by doing pair wise comparisons of each treatment to a control. Statistical tests used for the comparisons included MIXED procedure and LSMEANS statement. All tests where P-value<.05 were considered to indicate statistical significance. P-values were not adjusted for the multiple comparisons.
“Estimate” is the estimate of the difference between means of log values of treatment 1 and treatment 2

HaCaT cells = test: LDH release from HaCaT cells; type: cell-based, human; conditions: 100 µM; over night; colorimetric; vs 2% Triton-X100
Procedure: (§2) The cytotoxicity of MSP was evaluated by the ability of 100 µM MSP66–76 or MSP66–76E/Q to cause LDH release from HaCaT cells and lysis of erythrocytes.
(§3) Supplementary file ppat.1002625.s006.tif: Table S1 Cytoxic and hemolytic Effect of MSP66–76E/Q and MSP66–76. HaCaT cells were treated with 100 µM of MSP66–76E/Q and MSP66–76 over night. The release of LDH was subsequently determined by colorimetric assay and depicted as percent of LDH release of cells treated with 2% Triton- X100. Erythrocytes were treated for 1 ½ hour with 100 µM of MSP66–76E/Q and MSP66–76 followed by centrifugation. Lysis was determined by measuring hemoglobin in the supernatant by measuring the absorbance at 550 nm. Results are depicted as % of lysis compared to lysis obtained by 2% Triton-X100. (TIF) Click here for additional data file.

erythrocytes = test: Lysis of erythrocytes; type: cell-based, human; conditions: 100 µM; 1 ½ hour; absorbance at 550 nm; vs 2% Triton-X100
Procedure: as §2, §3

C. albicans = test: Antifungal gel overlay assay (AU-PAGE); type: cell-based, Candida albicans
Procedure: Gel overlay assay was performed essentially as described. Briefly, duplicate samples were run on native Acid Urea (AU-PAGE) gels in 5% (v/v) acetic acid at 100 V for 1 h 20 min. Candida albicans was grown over night, washed and resuspended in 10 mM NaPO4 pH 7.4 and approximately 1×10^5 CFU were added to 12 ml melted underlay agarose (10 mM NaPO4, pH 7.4, 0.03% SAB, 1% agarose type 1 (Sigma, St. Louis, MO)) and poured into a square Petri dish. One AU-gel was stained with Coomassie brilliant blue and one AU gel was washed 3×4 min in 10 mM NaPO4, pH 7.4 and then placed on top of the agarose and incubated for 4 h at 37°C. The AU gel was then removed and an overlay agarose (6% SAB, 1% agarosetype 1 (Sigma)) was poured on top of the underlay and incubated over night at 30°C. To make the clearing zones more visible, the agarose was stained with Coomassie brilliant blue followed by destaining.

E. coli (strain 37.4) = test: Antibacterial CFU assay; type: cell-based; conditions: purified MSP 10 µM + 20 µM EDTA or recombinant dialyzed MSP 10 µM + 10 µM EDTA; low and neutral pH; data not shown
Procedure: as §1, with “E. coli (strain 37.4), S. aureus (strain 5120), S. pyogenes (M5 Manfredo), S. agalactiae (SB1), and E. faecalis (strain 2374) were grown in THY medium (Todd Hewitt with addition of yeast) and on THY agar plates at 37°C with 5% (v/v) CO2. Candida” for “Candida”

[2] = system: E. faecalis (strain 2374); test: Antibacterial CFU assay; type: cell-based; conditions: purified MSP 10 µM + 20 µM EDTA or recombinant dialyzed MSP 10 µM + 10 µM EDTA; low and neutral pH; data not shown
Procedure: as §1, with “E. coli (strain 37.4), S. aureus (strain 5120), S. pyogenes (M5 Manfredo), S. agalactiae (SB1), and E. faecalis (strain 2374) were grown in THY medium (Todd Hewitt with addition of yeast) and on THY agar plates at 37°C with 5% (v/v) CO2. Candida” for “Candida”

S. agalactiae (SB1) = test: Antibacterial CFU assay; type: cell-based; conditions: purified MSP 10 µM + 20 µM EDTA or recombinant dialyzed MSP 10 µM + 10 µM EDTA; neutral pH; data not shown
Procedure: as §1, with “E. coli (strain 37.4), S. aureus (strain 5120), S. pyogenes (M5 Manfredo), S. agalactiae (SB1), and E. faecalis (strain 2374) were grown in THY medium (Todd Hewitt with addition of yeast) and on THY agar plates at 37°C with 5% (v/v) CO2. Candida” for “Candida”

S. aureus (strain 5120) = test: Antibacterial CFU assay; type: cell-based; conditions: purified MSP 10 µM + 20 µM EDTA or recombinant dialyzed MSP 10 µM + 10 µM EDTA; neutral pH; data not shown
Procedure: as §1, with “E. coli (strain 37.4), S. aureus (strain 5120), S. pyogenes (M5 Manfredo), S. agalactiae (SB1), and E. faecalis (strain 2374) were grown in THY medium (Todd Hewitt with addition of yeast) and on THY agar plates at 37°C with 5% (v/v) CO2. Candida” for “Candida”

[3] = system: S. pyogenes (M5 Manfredo); test: Antibacterial CFU assay; type: cell-based; conditions: purified MSP 10 µM + 20 µM EDTA or recombinant dialyzed MSP 10 µM + 10 µM EDTA; neutral pH; data not shown
Procedure: as §1, with “E. coli (strain 37.4), S. aureus (strain 5120), S. pyogenes (M5 Manfredo), S. agalactiae (SB1), and E. faecalis (strain 2374) were grown in THY medium (Todd Hewitt with addition of yeast) and on THY agar plates at 37°C with 5% (v/v) CO2. Candida” for “Candida”

Molecule | Effect of 0.5 mM calcium on antifungal activity ([1]; acidic pH, Figure S2) | Estimate (difference between means of log values) ([1]; 140 µM + 0.5 mM calcium, experiment 1) | Estimate (difference between means of log values) ([1]; 140 µM + 0.5 mM calcium, experiment 2) | Estimate (difference between means of log values) ([1]; 140 µM + 0.5 mM calcium, experiment 3) | Estimate (difference between means of log values) ([1]; 140 µM + 0.5 mM magnesium, experiment 1) | Estimate (difference between means of log values) ([1]; 140 µM + 0.5 mM magnesium, experiment 2) | Estimate (difference between means of log values) ([1]; 140 µM + 0.5 mM magnesium, experiment 3) | Estimate (difference between means of log values) ([1]; 140 µM, experiment 1) | Estimate (difference between means of log values) ([1]; 140 µM, experiment 2) | Estimate (difference between means of log values) ([1]; 140 µM, experiment 3) | Calcium concentration inhibiting the antifungal activity ([1]; neutral pH, Figure S2) [µM] | LDH release from HaCaT cells (HaCaT cells) | Lysis of erythrocytes (erythrocytes) | Fungicidal activity in CFU assay ([1]; native MSP 10 µM + 20 µM EDTA or recombinant dialyzed MSP 10 µM + 10 µM EDTA) | Clearing zone in antifungal gel overlay assay (C. albicans) | Antibacterial activity in CFU assay (E. coli (strain 37.4)) | Antibacterial activity in CFU assay [2] | Antibacterial activity in CFU assay (S. agalactiae (SB1)) | Antibacterial activity in CFU assay (S. aureus (strain 5120)) | Antibacterial activity in CFU assay [3]
RIFKKQDCKYI [MSP66–76E/Q, mutated form of MSP66–76 where E71 was substituted with a glutamine] | not inhibited | 3.1854 | 2.1182 | 2.6879 | 4.0137 | 1.7951 | 4.5634 | 5.3523 | 5.6354 | 5.8836 | 50 to 100 | No significant LDH release | No significant LDH release or lysis |  |  |  |  |  |  | 
B1 |  |  |  |  |  |  |  |  |  |  |  |  |  | prominent fungicidal activity | displayed antifungal activity by producing a clearing zone | no antibacterial activity | no antibacterial activity | no antibacterial activity | no antibacterial activity | no antibacterial activity
